Data on one molecule can be found in patent US20260263415A1, “Sulfonamides With Activity in Acute Kidney Injury and Fibrosis” (University of Pittsburgh - Of the Commonwealth System of …, priority 2023, published 2026).

The structures appear in SMILES notation.

In the experiment the test system is Zebrafish larvae injected with gentamicin. Description: Zebrafish gentamicin kidney injury survival assay. In kind it is in vivo. As for the experimental part: Potential efficacy was tested in zebrafish assays, essentially as follows. Zebrafish were maintained as described (see, e.g., Cianciolo Cosentino, C., et al. (2013) Histone deacetylase inhibitor enhances recovery after AKI. J Am Soc Nephrol, 24 (6), 943-53 and Skrypnyk, N. I., et al. (2016) Delayed treatment with PTBA analogs reduces postinjury renal fibrosis after kidney injury. Am J Physiol Renal Physiol, 310 (8), F705-F716), and embryos from Pitt AB wildtype were used. Zebrafish larvae were injected with a single dose of gentamicin at 3 dpf with 7 ng of gentamicin as previously described. Prior to the gentamicin injection, 3 dpf zebrafish larvae were anesthetized in 0.2% tricaine/E3 medium (5 mM NaCl, 0.33 mM CaCl2), 0.33 mM MgSO4, and 0.17 mM KCl). Glass capillaries were pulled to produce microneedles and were aspirated with […] of 7 ng/nL gentamicin solution diluted with filtered saline solution (Aspen Veterinary Resources, Cat No. 17861615). The larvae were injected with 1 nL gentamicin solution, delivered via the common cardinal vein. After injection, larvae were incubated in 50 μg/mL penicillin/streptomycin diluted in E3 medium. […]
Data were analyzed as compounds that extend survival as measured by Kaplan-Meier estimator.
Table A provides preliminary calculated hazard ratios (n=1) for tested compounds (see also FIGS. 3A and 3B). […]

For `COC(=O)CCCSc1ccccc1` [UPHD 25], the “larval survival compared to the injured, untreated control” value (4 μM from 2 days post-injection, days 5-11 post-fertilization) is on record as “increase larval survival”. Also, the “survival as measured by Kaplan-Meier estimator” value (positive control, all survival assays) was “statistically significant”.
